Test results published in US5420142A, “Certain 3-formyl-1, 4-dihydropyridines and their pharmaceutical composition and use” (Bayer Aktiengesellschaft, priority 1991, dated 1995).

Test system: isolated guinea pig heart auricles
Assay: Substance effects on the contraction amplitude of isolated guinea pig heart auricles
Settings: Cavia porcellus, active compound concentration 10^-4 g/l, read-out: Contractility (% control)
Description: The cardiac and vascular effects were found on isolated perfused guinea pig hearts. To this end, the hearts of guinea pigs of 250 to 350 g weight are used. The animals are killed by a blow to the head, the thorax is opened, and a metal cannula is tied into the exposed aorta. The heart is separated out of the thorax with the lungs and connected to the perfusion apparatus via an aortic cannula with continuous perfusion. The lungs are separated at the roots of the lung. The perfusion medium used is a Krebs-Henseleit solution (1) (118.5 mmol/l of NaCl, 4.75 mmol/l of KCl, 1.19 mmol/1 of KH2 PO4, 1.19 mmol/l of MgSO4, 25 mmol/l of NaHCO3, 0.013 mmol/l of Na2 EDTA), the CaCl2 content of which is 1.2 mmol/l. 10 mmol/l of glucose are added as an energy-producing substrate. The solution is filtered free from particles before perfusion. The solution is aerated with carbogen (95% O2, 5% CO2) to maintain the pH 7.4. The hearts are perfused with a constant flow (10 ml/min) at 32° C. by means of a peristaltic pump.
For the measurement of cardiac function, a liquid-filled latex balloon which is connected to a pressure transducer via a liquid column is inserted into the left ventricle through the left auricle, and the isovolumetric contractions are recorded on a rapid recorder (Opie, L., J. Physiol., 180 (1965), 529-541). The perfusion pressure is recorded by means of a pressure transducer which is connected to the perfusion system upstream of the heart. Under these conditions, a reduction in the perfusion pressure indicates a coronary dilation, and an increase or decrease in the left-ventricular contraction amplitude indicates […] in the heart contractility. The compounds according to the invention are perfused into the perfusion system in suitable dilutions Just upstream of the isolated heart.
Substance effects on the contraction amplitude of isolated guinea pig heart auricles at an active compound concentration of 10^-4 g/l.

Structure (SMILES)	activation at 0.1 µg/mL [%]
CCOC(=O)C1=C(C)NC(C)=C(C=O)C1c1cccc2ncc(-c3ccccc3)cc12 (stereo not drawn) [Example 1, Ethyl 1,4-dihydro-2,6-dimethyl-3-formyl-4-(3-phenylquinolin-5-yl)-pyridine-5-carboxylate]	32
CC1=C(C=O)C(c2cccc3ncc(-c4ccccc4)cc23)C(C(=O)OC(C)C)=C(C)N1 (stereo not drawn) [Example 3]	31
COC(=O)C1=C(C)NC(C)=C(C=O)C1c1cccc2ncc(-c3ccccc3)cc12 (stereo not drawn) [Example 4]	41
